From patent publication US20070088033A1, “Diaryl Substituted Pyridinones” (priority 2002, published 2007)
Values joined by “and” are separate entries in the source; they are usually repeats but may differ in a detail not shown here. Equal entries are not always repeated.

Tested on: not given
Test: not given
Settings: not given

melting point	SMILES
149 to 149.7 °C	Cc1ccc(COc2ccn(Cc3ccccc3)c(=O)c2Br)cc1 [Example 44, 1-Benzyl-3-bromo-4-[(4-methylbenzyl)oxy]pyridin-2(1H)-one]
137.6 to 144.3 °C	O=c1c(Br)c(OCc2ccccc2)ccn1Cc1ccc(OCc2ccccc2)cc1 [Example 12, 4-(benzyloxy)-1-[4-(benzyloxy)benzyl]-3-bromopyridin-2(1H)-one]
207.9 °C	Cl.O=c1c(Br)c(OCc2ccccc2)ccn1CC1CCNCC1
180.6 to 182.1 °C	O=c1c(Br)c(SCc2ccccc2)ccn1Cc1ccccc1 [Example 46]
133.2 to 133.5 °C	O=c1c(Br)c(OCc2ccccc2C(F)(F)F)ccn1Cc1ccccc1 [Example 47, 1-Benzyl-3-bromo-4-{[2-(trifluoromethyl)benzyl]oxy}pyridin-2(1H)-one]
156.3 to 157.9 °C	O=c1c(Br)c(OCc2c(Cl)cccc2Cl)ccn1Cc1ccccc1 [Example 461, 1-Benzyl-3-bromo-4-[2,6-(dichlorobenzyl)oxy]pyridin-2(1H)-one]
61.3 to 64.8 °C	Cn1ccc(OCc2ccccc2)c(Br)c1=O [Example 23, 4-(benzyloxy)-3-bromo-1-methylpyridin-2(1H)-one]
61.3 to 64.8 °C	CCn1ccc(OCc2ccccc2)c(Br)c1=O [Example 20, 4-(benzyloxy)-3-bromo-1-ethylpyridin-2(1H)-one]
138.1 to 139.2 °C	Cl.O=c1c(Br)c(OCc2ccccc2)ccn1CC1CCCNC1 (stereo not drawn)
210.2 to 212.2 °C	NC(=NO)c1ccc(Cn2ccc(OCc3ccccc3)c(Br)c2=O)cc1 [Example 24, 4-{[4-(benzyloxy)-3-bromo-2-oxopyridin-1(2H)-yl]methyl}-N′-hydroxybenzenecarboximidamide]
143.3 to 145.5 °C	O=c1c(Br)c(OCc2ccccc2Cl)ccn1Cc1ccccc1 [Example 43, 1-Benzyl-3-bromo-4-[(2-chlorobenzyl)oxy]pyridin-2(1H)-one]
142.8 to 143.3 °C	Cc1ccc(Cn2ccc(OCc3ccccc3)cc2=O)cc1 [Example 1, 4-(benzyloxy)-1-(4-methylbenzyl)pyridin-2(1H)-one]
181.5 to 181.6 °C	O=c1c(Br)c(OCc2ccccc2)ccn1Cc1cccc(C(F)(F)F)c1 [Example 31, 4-(benzyloxy)-3-bromo-1-[3-(trifluoromethyl)benzyl]pyridin-2(1H)-one]
151.6 to 152 °C	O=c1cc(OCc2c(Cl)cccc2Cl)ccn1Cc1ccccc1 [Example 40, 1-Benzyl-4-[2,6-(dichlorobenzyl)oxy]pyridin-2(1H)-one]
128 to 129.5 °C	O=c1c(Br)c(OCc2ccccc2)ccn1CCc1cccs1 [Example 30, 4-(benzyloxy)-3-bromo-1-(2-thien-2-ylethyl)pyridin-2(1H)-one]
134 to 134.3 °C	O=c1c(Br)c(OCc2ccccc2)ccn1CCc1ccsc1 [Example 29, 4-(benzyloxy)-3-bromo-1-(2-thien-3-ylethyl)pyridin-2(1H)-one]
250.8 to 255.7 °C	O=C(O)c1ccc(Cn2ccc(OCc3ccccc3)c(Br)c2=O)cc1 [Example 15, 4-{[4-(benzyloxy)-3-bromo-2-oxopyridin-1(2H)-yl]methyl}benzoic acid]
102 to 108 °C	O=c1c(Br)c(O)ccn1Cc1ccc(O)cc1 [Example 21, 3-bromo-4-hydroxy-1-(4-hydroxybenzyl)pyridin-2(1H)-one]
150.4 to 151.2 °C	Cc1ccc(Cn2ccc(OCc3ccccc3)c(Br)c2=O)cc1 [Example 2, 4-(benzyloxy)-3-bromo-1-(4-methylbenzyl)pyridin-2(1H)-one]
124.6 to 125 °C	O=c1cc(OCc2ccccc2Cl)ccn1Cc1ccccc1 [Example 42, 1-Benzyl-4-[(2-chlorobenzyl)oxy]pyridin-2(1H)-one]
95.5 to 95.7 °C	O=c1cc(OCc2cccc(Cl)c2)ccn1Cc1ccccc1 [Example 45, 1-Benzyl-4-[(3-chlorobenzyl)oxy]pyridin-2(1H)-one]

Target: T1, human p38 kinase alpha (Homo sapiens, UniProt Q16539)
T1 construct: The coding region of the human p38 cDNA was obtained by PCR-amplification from RNA isolated from the human monocyte cell line THP.1; GST (N); made in house; host or cells: E. coli DH10B
Test: p38 kinase in vitro assay
Type: biochemical
Settings: Table I; average of n trials, n=1 if not reported; read-out: p38 Alpha IC50
Procedure: The ability of compounds to inhibit human p38 kinase alpha was evaluated using two in vitro assay methods. In the first method, activated human p38 kinase alpha phosphorylates a biotinylated substrate, PHAS-I (phosphorylated heat and acid stable protein-insulin inducible), in the presence of gamma ^32p-ATP (^32P-ATP). PHAS-I was biotinylated prior to the assay and provides a means of capturing the substrate, which is phosphorylated during the assay. p38 Kinase was activated by MKK6. Compounds were tested in 10 fold serial dilutions over the range of 100 μM to 0,001 μM using 1% DMSO. Each concentration of inhibitor was tested in triplicate.
All reactions were carried out in 96 well polypropylene plates. Each reaction well contained 25 mM HEPES pH 7.5, 10 mM magnesium acetate and 50 μM unlabeled ATP. […] Activated human p38 kinase alpha was used at 1 μg per 50 μl reaction volume representing a final concentration of 0.3 μM. Gamma ^32P-ATP was used to follow the phosphorylation of PHAS-I. ^32P-ATP has a specific activity of 3000 Ci/mmol and was used at 1.2 μCi per 50 μl reaction volume. The reaction proceeded either for one hour or overnight at 30° C.
Following incubation, 20 μl of reaction mixture was transferred to a high capacity streptavidin coated filter plate (SAM-streptavidin-matrix, Promega) prewetted with phosphate buffered saline, The transferred reaction mix was allowed to contact the streptavidin membrane of the Promega plate for 1-2 minutes. […] Filter plates were air-dried and 20 μl of scintillant was added. The plates were sealed and counted.
A second assay format was also employed that is based on p38 kinase alpha induced phosphorylation of EGFRP (epidermal growth factor receptor peptide, a 21 mer) in the presence ^33P-ATP. Compounds were tested in 10 fold serial dilutions over the range of 100 μM to 0.001 μM in 1% DMSO. Each concentration of inhibitor was tested in triplicate. Compounds were evaluated in 50 μl reaction volumes in the presence of 25 mM Hepes pH 7.5, 10 mM magnesium acetate, 4% glycerol, 0.4% bovine serum albumin, 0.4 mM DTT, 50 μM unlabeled ATP, 25 μg EGFRP (200 μM), and 0.05 μCi ^33p-ATP. Reactions were initiated by addition of 0.09 μg of activated, purified human GST-p38 kinase alpha. Activation was carried out using GST-MKK6 (5:1,p38:MKK6) for one hour at 30° C. in the presence of 50 μM ATP. Following incubation for 60 minutes at room temperature, the reaction was stopped by addition of 150 μl of AG 1×8 resin in 900 mM sodium formate buffer, pH 3.0 (1 volume resin to 2 volumes buffer). The mixture was mixed three times with pipetting and the resin was allowed to settle. A total of 50 μl of clarified solution head volume was transferred from the reaction wells to Microlite-2 plates. 150 μl of Microscint 40 was then added to each well of the Microlite plate, and the plate was sealed, mixed, and counted.

T1 sequence (Q16539 whole entry): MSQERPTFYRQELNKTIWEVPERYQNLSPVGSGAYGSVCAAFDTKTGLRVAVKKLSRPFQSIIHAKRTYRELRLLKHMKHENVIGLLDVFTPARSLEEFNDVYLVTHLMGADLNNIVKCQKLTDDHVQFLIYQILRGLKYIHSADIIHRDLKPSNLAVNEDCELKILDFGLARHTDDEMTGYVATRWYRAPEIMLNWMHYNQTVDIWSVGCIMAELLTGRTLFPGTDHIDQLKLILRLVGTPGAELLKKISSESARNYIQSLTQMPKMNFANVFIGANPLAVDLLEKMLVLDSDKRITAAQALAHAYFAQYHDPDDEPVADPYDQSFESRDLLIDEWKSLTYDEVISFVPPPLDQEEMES

IC50	SMILES
365 nM	Cc1ccc(Cn2ccc(OCc3ccccc3)c(Br)c2=O)cc1 [Q]
450 nM	CSc1ccc(Cn2ccc(OCc3ccccc3)c(Br)c2=O)cc1 [W]
64.6 nM	Cc1cccc(C)c1-n1c(C)cc(OCc2ccc(F)cc2F)c(Br)c1=O [C]
700 nM	O=c1c(Br)c(OCc2ccccc2)ccn1Cc1cccc(F)c1 [J]

Same assay, conditions: Table II; several values in a cell = repeat determinations; read-out: p38A

IC50	SMILES
1600 nM	Cc1cc(OCc2cccc(Cl)c2)c(Br)c(=O)n1Cc1ccccc1 [CCC]
64800 nM	O=c1cc(OCc2ccccc2)ccn1Cc1ccc(F)cc1 [NNNN]
2410 nM	COc1ccc(Cn2ccc(OCc3ccc(Cl)cc3)c(Br)c2=O)cc1 [QQ]
1730 nM	Cc1ccc(COc2ccn(Cc3ccccc3)c(=O)c2Br)cc1 [LL]
6800 nM	O=c1c(Br)c(OCc2ccc(Cl)cc2)ccn1Cc1cccc(Cl)c1 [RR]
77600 nM	O=c1c(Br)c(OCc2ccccc2C(F)(F)F)ccn1Cc1ccccc1 [CCCC]
41600 nM	Cc1c(Br)c(OCc2ccccc2)c(Br)c(=O)n1Cc1ccccc1 [FFF]
35800 nM	O=c1cc(OCc2ccccc2)ccn1Cc1cccc(F)c1 [PPP]
26400 nM and 59200 nM and 49000 nM	O=c1cc(OCc2ccccc2)ccn1Cc1ccccc1 [EEEE]

Same assay, conditions: Table III; n = number of times assayed, n=1 if not reported; read-out: p38 Alpha IC50

IC50	SMILES
282 nM	O=c1c(Br)c(OCc2ccc(F)cc2F)ccn1Cc1cccnc1 [XXXX]
1730 nM	Cc1ccc(COc2ccn(Cc3ccccc3)c(=O)c2Br)cc1 [QQQQQ]
